Assay results as given in US12473289B2, “Heterocyclic compounds as delta-5 desaturase inhibitors and methods of use” (Amgen Inc., priority 2019, dated 2025).

The molecules below were run against Delta-5-Desaturase (D5D) (Homo sapiens (Human), UniProt O60427) (assay: In vitro measurement of Delta-5-Desaturase inhibitory activity using DGLA-CoA and Arachidonyl-CoA mass spectrometric assays). Conditions: membrane preparations of D5D-overexpressing HEK293 6E cells; averaged over at least two independent runs.
Assay type: biochemical
How it was run: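 Membranes from D5D-overexpressing HEK293 6E cells (10 μg/mL final) in Tris pH 7.5 with MgCl2, octyl glucoside and TCEP were mixed 1:1 with substrate solution (0.01 mM DGLA, 0.25 mM NADH, 0.25 mM ATP, 0.05 mM CoA) for 1 h at ambient temperature. RapidFire SPE-MS/MS MRM; IC50 by 4-parameter fit, ≥2 runs.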

Sequence of Delta-5-Desaturase (D5D) (O60427 whole entry, species assumed): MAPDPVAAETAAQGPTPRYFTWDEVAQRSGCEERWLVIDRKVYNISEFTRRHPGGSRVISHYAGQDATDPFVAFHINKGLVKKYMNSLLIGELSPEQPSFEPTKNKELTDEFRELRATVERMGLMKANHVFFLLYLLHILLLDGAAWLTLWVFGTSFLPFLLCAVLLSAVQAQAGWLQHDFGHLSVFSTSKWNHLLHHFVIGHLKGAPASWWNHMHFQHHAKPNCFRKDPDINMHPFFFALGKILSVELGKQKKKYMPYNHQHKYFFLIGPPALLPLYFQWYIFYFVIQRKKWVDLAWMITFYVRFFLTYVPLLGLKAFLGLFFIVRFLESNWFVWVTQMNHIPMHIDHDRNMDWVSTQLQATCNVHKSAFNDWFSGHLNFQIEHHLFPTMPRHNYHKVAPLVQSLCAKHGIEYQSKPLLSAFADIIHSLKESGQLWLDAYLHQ

Row | Compound | IC50
1 | CCc1nc2cc(OC)ccn2c(=O)c1-c1cnn(CC(F)(F)C(F)(F)F)c1 [Example 3-1, 2-Ethyl-8-methoxy-3-(1-(2,2,3,3,3-pentafluoropropyl)-1H-pyrazol-4-yl)-4H-pyrido[1,2-a]pyrimidin-4-one] | 53.9 nM
2 | Cc1cnn2c(=O)c(-c3ccc(OCC(F)(F)F)cc3)c(C(F)(F)F)nc2c1 [Example 39-50, 8-methyl-3-[4-(2,2,2-trifluoroethoxy)phenyl]-2-(trifluoromethyl)-4H-pyrimido[1,2-b]pyridazin-4-one] | 105 nM
3 | Cc1cnn2c(=O)c(-c3cnn(CC4CC4(F)F)c3)c(C(F)(F)F)nc2c1 (stereo not drawn) [Example 39-53, 3-{1-[(2,2-difluorocyclopropyl)methyl]-1H-pyrazol-4-yl}-8-methyl-2-(trifluoromethyl)-4H-pyrimido[1,2-b]pyridazin-4-one] | 369 nM
4 | Cc1ccn2c(=O)c(-c3ccc(OCC(F)(F)F)cc3)c(C(F)(F)F)nc2c1 [Example 1-78, 8-methyl-3-(4-(2,2,2-trifluoroethoxy)phenyl)-2-(trifluoromethyl)-4H-pyrido[1,2-a]pyrimidin-4-one] | 2.7 nM
5 | COc1ccc2nc(C(F)(F)F)c(-c3cnn(CC(F)(F)C(F)(F)F)c3)c(=O)n2n1 [Example 39-14, 7-methoxy-3-[1-(2,2,3,3,3-pentafluoropropyl)-1H-pyrazol-4-yl]-2-(trifluoromethyl)-4H-pyrimido[1,2-b]pyridazin-4-one] | 44400 nM
6 | NC(=O)c1ccn2c(=O)c(-c3ccc(OCC(F)(F)F)cc3)c(C(F)(F)F)nc2c1 [Example 12-2, 4-oxo-3-(4-(2,2,2-trifluoroethoxy)phenyl)-2-(trifluoromethyl)-4H-pyrido[1,2-a]pyrimidine-8-carboxamide] | 5.2 nM
7 | COCc1ccn2c(=O)c(-c3cnn(CC(F)(F)C(F)(F)F)c3)c(C(F)(F)F)nc2c1 [Example 36, 8-(Methoxymethyl)-3-[1-(2,2,3,3,3-pentafluoropropyl)-1H-pyrazol-4-yl]-2-(trifluoromethyl)-4H-pyrido[1,2-a]pyrimidin-4-one] | 162 nM
8 | COc1ccn2c(=O)c(-c3ccc(OC[C@H]4CC4(F)F)cc3)c(C(F)(F)F)nc2c1 [Example 1-83, 3-(4-(((1R)-2,2-Difluorocyclopropyl)methoxy)phenyl)-8-methoxy-2-(trifluoromethyl)-4H-pyrido[1,2-a]pyrimidin-4-one] | 5.7 nM
9 | Cc1cnn2c(=O)c(-c3cnn(CC4CC(F)(F)C4)c3)c(C(F)(F)F)nc2c1 [Example 39-52, 3-{1-[(3,3-difluorocyclobutyl)methyl]-1H-pyrazol-4-yl)-8-methyl-2-(trifluoromethyl)-4H-pyrimido[1,2-b]pyridazin-4-one] | 420 nM
10 | O=c1c(-c2cnn(CC(F)(F)C(F)(F)F)c2)c(C(F)(F)F)nc2ccc(F)cn12 [Example 39-23, 7-fluoro-3-[1-(2,2,3,3,3-pentafluoropropyl)-1H-pyrazol-4-yl]-2-(trifluoromethyl)-4H-pyrido[1,2-a]pyrimidin-4-one] | 2.1 nM
11 | Cc1cnn2c(=O)c(-c3cnn(CC4CC4)c3)c(C(F)(F)F)nc2c1 [Example 39-51, 3-[1-(cyclopropylmethyl)-1H-pyrazol-4-yl]-8-methyl-2-(trifluoromethyl)-4H-pyrimido[1,2-b]pyridazin-4-one] | 74.3 nM
12 | COc1ccn2c(=O)c(-c3cnn(-c4ccccc4)c3)c(C(F)(F)F)nc2c1 [Example 1-47, 8-methoxy-3-(1-phenyl-1H-pyrazol-4-yl)-2-(trifluoromethyl)-4H-pyrido[1,2-a]pyrimidin-4-one] | 5.4 nM
13 | COc1ccn2c(=O)c(-c3cnc(OCC(F)(F)F)nc3)c(C(F)(F)F)nc2n1 [Example 39-13, 8-methoxy-3-[2-(2,2,2-trifluoroethoxy)pyrimidin-5-yl]-2-(trifluoromethyl)-4H-[1,3]diazino[1,2-a]pyrimidin-4-one] | 248 nM
14 | CNC(=O)c1ccn2c(=O)c(-c3ccc(OCC(F)(F)F)cc3)c(C(F)(F)F)nc2c1 [Example 12-1, N-Methyl-4-oxo-3-(4-(2,2,2-trifluoroethoxy)phenyl)-2-(trifluoromethyl)-4H-pyrido[1,2-a]pyrimidine-8-carboxamide] | 120 nM
15 | COc1cc2nc(C(F)(F)F)c(-c3cnn(CC4CC4(F)F)c3)c(=O)n2cc1F (racemic) [Example 39-59, 3-{1-[(2,2-difluorocyclopropyl)methyl]-1H-pyrazol-4-yl}-7-fluoro-8-methoxy-2-(trifluoromethyl)-4H-pyrido[1,2-a]pyrimidin-4-one] | 5 nM
16 | O=c1c(-c2ccc(OCC(F)(F)F)nc2)c(C(F)(F)F)nc2ccccn12 [Example 20, 3-(6-(2,2,2-Trifluoroethoxy)-3-pyridinyl)-2-(trifluoromethyl)-4H-pyrido[1,2-a]pyrimidin-4-one] | 109 nM
17 | Cc1cn2c(=O)c(-c3cnn(CC(F)(F)C(F)(F)F)c3)c(C(F)(F)F)nc2c(C)n1 [Example 39-43, 7,9-dimethyl-3-[1-(2,2,3,3,3-pentafluoropropyl)-1H-pyrazol-4-yl]-2-(trifluoromethyl)-4H-pyrazino[1,2-a]pyrimidin-4-one] | 179 nM

Row | Compound | IC50
18 | COc1ccn2c(=O)c(-c3ncn(CC(F)(F)C(F)(F)F)n3)c(C(F)(F)F)nc2c1 [Example 54, 8-Methoxy-3-[1-(2,2,3,3,3-pentafluoropropyl)-1H-1,2,4-triazol-3-yl]-2-(trifluoromethyl)-4H-pyrido[1,2-a]pyrimidin-4-one] | > 67000 nM
19 | C[C@@H](O)c1ccn2c(=O)c(-c3cnn(CC(F)(F)C(F)(F)F)c3)c(C(F)(F)F)nc2c1 [Example 31-1, 8-((1R)-1-hydroxyethyl)-3-(1-(2,2,3,3,3-pentafluoropropyl)-1H-pyrazol-4-yl)-2-(trifluoromethyl)-4H-pyrido[1,2-a]pyrimidin-4-one] | 164 nM
20 | O=c1c(-c2cnn(CCC(F)(F)F)c2)c(C(F)(F)F)nc2n1CCOC2 [Example 39-38, 2-(trifluoromethyl)-3-[1-(3,3,3-trifluoropropyl)-1H-pyrazol-4-yl]-4H,6H,7H,9H-pyrimido[2,1-c][1,4]oxazin-4-one] | 1070 nM
21 | Cc1ccc2nc(C(F)(F)F)c(-c3cnn(CC(F)(F)C(F)(F)F)c3)c(=O)n2n1 [Example 39-32, 7-methyl-3-[1-(2,2,3,3,3-pentafluoropropyl)-1H-pyrazol-4-yl]-2-(trifluoromethyl)-4H-pyrimido[1,2-b]pyridazin-4-one] | 154 nM
22 | O=c1c(-c2ccc(OCC(F)(F)F)cc2)c(C(F)(F)F)nc2cc(C3CNC3)ccn12 [Example 28, 8-(3-Azetidinyl)-3-(4-(2,2,2-trifluoroethoxy)phenyl)-2-(trifluoromethyl)-4H-pyrido[1,2-a]pyrimidin-4-one] | 2940 nM
23 | COc1ccn2c(=O)c(-c3cnn(CCC(F)(F)F)c3)c(C(F)F)nc2c1 [Example 1-14, 2-(difluoromethyl)-8-methoxy-3-(1-(3,3,3-trifluoropropyl)-1H-pyrazol-4-yl)-4H-pyrido[1,2-a]pyrimidin-4-one] | 22.9 nM
24 | C[S@@+]([O-])c1ccn2c(=O)c(-c3cnn(CC(F)(F)C(F)(F)F)c3)c(C(F)(F)F)nc2c1 [Example 15-6, 8-((R)-methylsulfinyl)-3-(1-(2,2,3,3,3-pentafluoropropyl)-1H-pyrazol-4-yl)-2-(trifluoromethyl)-4H-pyrido[1,2-a]pyrimidin-4-one] | 173 nM
25 | CCCn1cc(-c2c(C(F)(F)F)nc3ccccn3c2=O)cn1 [Example 5-4, 3-(1-propyl-1H-pyrazol-4-yl)-2-(trifluoromethyl)-4H-pyrido[1,2-a]pyrimidin-4-one] | 198 nM
26 | COc1ccn2c(=O)c(-c3ccc(OCC#N)cc3)c(C(F)(F)F)nc2c1 [Example 21, (4-(8-Methoxy-4-oxo-2-(trifluoromethyl)-4H-pyrido[1,2-a]pyrimidin-3-yl)phenoxy)acetonitrile] | 5.8 nM
27 | O=c1c(-c2cnn(CC(F)(F)C(F)(F)F)c2)c(C(F)(F)F)nc2ccc(C3CC3)cn12 [Example 39-21, 7-cyclopropyl-3-[1-(2,2,3,3,3-pentafluoropropyl)-1H-pyrazol-4-yl]-2-(trifluoromethyl)-4H-pyrido[1,2-a]pyrimidin-4-one] | 110 nM
28 | O=c1c(-c2cnc(OCC(F)(F)F)nc2)c(C(F)(F)F)nc2ccc(C3CC3)cn12 [Example 39-20, 7-cyclopropyl-3-[2-(2,2,2-trifluoroethoxy)pyrimidin-5-yl]-2-(trifluoromethyl)-4H-pyrido[1,2-a]pyrimidin-4-one] | > 67000 nM
29 | COc1ccn2c(=O)c(-c3cnc(OCC(F)(F)F)s3)c(C(F)(F)F)nc2c1 [Example 56, 8-Methoxy-3-[2-(2,2,2-trifluoroethoxy)-1,3-thiazol-5-yl]-2-(trifluoromethyl)-4H-pyrido[1,2-a]pyrimidin-4-one] | 21.5 nM
30 | O=c1c(-c2cnn(CCC(F)(F)F)c2)c(C(F)(F)F)nc2ccc(C3CC3)cn12 [Example 39-22, 7-cyclopropyl-2-(trifluoromethyl)-3-[1-(3,3,3-trifluoropropyl)-1H-pyrazol-4-yl]-4H-pyrido[1,2-a]pyrimidin-4-one] | 2950 nM
31 | COc1cnn2c(=O)c(-c3cnc(OCC(F)(F)F)nc3)c(C(F)(F)F)nc2c1 [Example 38, 8-Methoxy-3-[2-(2,2,2-trifluoroethoxy)pyrimidin-5-yl]-2-(trifluoromethyl)-4H-pyrimido[1,2-b]pyridazin-4-one] | 99.2 nM
32 | COc1ccn2c(=O)c(-c3cnn(CCCC(F)(F)F)c3)c(C(F)(F)F)nc2n1 [Example 1-38, 8-methoxy-3-(1-(4,4,4-trifluorobutyl)-1H-pyrazol-4-yl)-2-(trifluoromethyl)-4H-pyrimido[1,2-a]pyrimidin-4-one] | 180 nM
33 | COc1ccn2c(=O)c(-c3cnn(CC4CC(F)(F)C4)c3)c(C(F)(F)F)nc2c1 [Example 39-49, 3-{1-[(3,3-difluorocyclobutyl)methyl]-1H-pyrazol-4-yl}-8-methoxy-2-(trifluoromethyl)-4H-pyrido[1,2-a]pyrimidin-4-one] | 4.6 nM
